Here are results for 2 compounds from patent US10285986B2, “Compounds and anti-tumor NQO1 substrates” (The Board of Trustees of the University of Illinois, priority 2011, dated 2019).

Values after ≈ are worked out from the molar mass of the structure shown. Values joined by “and” are separate entries in the source; they are usually repeats but may differ in a detail not shown here. Identical values can stand only once. Like-named read-outs stand apart in the source and are kept apart here.

One series relates to MCF-7 cells. The series is described as follows: Cytotoxicity to MCF-7 cells with or without 25 μM dicoumarol (sulforhodamine B assay). Type of series: cell-based, human. Particulars: for IC50: Homo sapiens; for Fold Protection of MCF7 cells w/ 25 μM dicoumarol: Table 1. Summed up: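 MCF-7 cells, which express high NQO1, were exposed to compounds for 2 hours with or without 25 μM dicoumarol. They were then washed and kept 72 hours in fresh media. Cell death was measured by sulforhodamine B assay.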

The next series addresses NQO1 (Homo sapiens, UniProt P15559). The experiment in a line: NQO1 enzymatic measurements in vitro. Type of series: biochemical. The note with it: 1 μM substrate. How it is done:
As further evidence that the activity of these DNQ derivatives is dependent on their ability to be reduced by NQO1, full enzymatic measurements in vitro were performed. We found a strong correlation between catalytic efficiency of substrates in vitro and their cell culture toxicity. […] This provides strong evidence that the cytotoxicity of DNQ and its derivatives are dependent primarily upon the activity of NQO1 within the cell.

Series [1] in a line: Aqueous solubility in pH 7.4 PBS by LC-MS. It counts as physicochemical. Summed up:
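Solid compound was sonicated 30 min in pH 7.4 PBS (the bath warmed to 45 °C, samples were cooled before filtration) and passed through a 0.45 μm filter. Filtrate was quantified by LC-MS with UV at 275 nm against a 1–100 μM DNQ calibration curve, which was also applied to derivatives. Strongly coloured filtrates were diluted 10-fold in PBS.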

Series [2] in a line: Solubility in 20% HPβCD solution (pH modulation protocol). Type of series: physicochemical. Particulars: for solubility: pH 7.4, aqueous with cosolvent or surfactant or cyclodextrin, thermodynamic from solid, Table 4.3. Summed up: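 Compound slurried in 20% HPβCD in pH 7.4 PBS, dissolved by raising pH with 10 M NaOH, then brought back to pH 7.5-8.0 with 1 M HCl. Solubility compared with buffer alone.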

Series [3] can be described thus: Solubility in organic solvents. Type of series: physicochemical. The note with it: for solubility: organic solvent or mixture, thermodynamic from solid. As for the experimental part:
The solubility of DNQ derivatives in organic solvents was determined by measuring the amount of a given solvent required to dissolve a known amount of compound. Solvent was added to the compound in 50 μL aliquots and the slurry was sonicated. […] Solubility was assessed in DMSO, dichloromethane, and 33% methanol in dichloromethane (FIGS. 9, 10, and 11, respectively).

A short description of series [4]: Maximum tolerated dose in mice. The note with it: mouse, ip. From the text: Because of the difficulty of repeated tail vein injections in mice, our group is using IP administration of compound.
All of these derivatives are currently being assessed for their maximum tolerated dose (MTD) in healthy mice. Compounds are formulated in HPβCD and delivered by IP injection to two mice once daily for five days.

Series [5] is described as follows: Solubility in organic solvents. Type of series: physicochemical. Particulars: organic solvent or mixture, thermodynamic from solid; THF; Table 1.
The mark [6] stands for this setting: MCF7, Table 1, read-out: MCF7 IC50.
Setting [7] is: MCF7, Table 4.2, no DIC, ± s.e., read-out: IC50 vs. MCF-7 cells.
The mark [8] stands for this setting: MCF7, classification in figure legends of FIGS. 7-11, read-out: IC50 ("active" / generally "inactive" compounds).
[9] abbreviates: MCF7, read-out: IC50 vs. MCF-7 cells +25 μM DIC, Table 4.2, +25 μM DIC, ± s.e.
[10] abbreviates: phosphate buffered saline, pH 7.4, aqueous buffer, thermodynamic from solid, PBS pH 7.4, Table 4.3.
The mark [11] stands for this setting: 20% HPβCD in pH 7.4 PBS, 20% HPβCD.
Setting [12] is: 2:1 CH2Cl2:MeOH, Table 4.3, read-out: Solubility in 2:1 CH2Cl2:MeOH.
Where [13] appears, read: CH2Cl2:MeOH 2:1, Table 1, read-out: CH2Cl2:MeOH 2:1 solubility.
Where [14] appears, read: CH2Cl2, Table 1, read-out: CH2Cl2 solubility.
The mark [15] stands for this setting: DMSO, Table 1, read-out: DMSO solubility.

Chain of NQO1 (P15559 whole entry): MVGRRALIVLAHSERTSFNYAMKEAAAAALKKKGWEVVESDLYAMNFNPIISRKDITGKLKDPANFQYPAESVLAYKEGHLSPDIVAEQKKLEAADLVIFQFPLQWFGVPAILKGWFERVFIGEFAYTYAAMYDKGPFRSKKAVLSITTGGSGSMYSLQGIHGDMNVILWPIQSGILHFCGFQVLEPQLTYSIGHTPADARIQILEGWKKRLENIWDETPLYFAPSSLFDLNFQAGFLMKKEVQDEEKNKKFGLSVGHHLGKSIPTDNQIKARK

On to `Cc1cc(=O)[nH]c2c1C(=O)c1c(C)cc(=O)n(CC(C)C)c1C2=O` [Compound 87], for which the IC50 is 250 nM in the series on MCF-7 cells (setting [6]), 230 ± 20 nM in the series on MCF-7 cells (setting [7]), under 500 nM in the series on MCF-7 cells (setting [8]) and 1100 ± 100 nM with MCF-7 cells (setting [9]). In the series with MCF-7 cells, the “Fold Protection of MCF7 cells w/ 25 μM dicoumarol” value was determined as 6.1. The “Fold protection by DIC” value in the series with MCF-7 cells (Table 4.2) was found to be 4.8. In addition, the “NQO1 Initial Velocity @ 1 μM” value at NQO1 stood at 1900 ± 200. Also, the solubility (usually the concentration that dissolves in the medium under given conditions) at 30 min in series [1] (setting [10]) was found to be 0.115 mM (≈ 37.5 µg/mL). Also, the solubility in series [2] (setting [11]) is 13 mM (≈ 4240 µg/mL); in series [3] (setting [12]), 140 mM (≈ 45700 µg/mL); in series [3] (setting [13]), 140 mM (≈ 45700 µg/mL); in series [3] (setting [14]), 180 mM (≈ 58700 µg/mL); in series [3] (setting [15]), 110 mM (≈ 35900 µg/mL); in series [5], 34 mM (≈ 11100 µg/mL). The “Solubility in CH2Cl2” value in series [3] (CH2Cl2, Table 4.3) is recorded as 180 mM (≈ 58700 µg/mL). Further, the “Solubility in DMSO” value in series [3] (DMSO, Table 4.3) is 110 mM (≈ 35900 µg/mL). Moreover, the MTD at 5 days in series [4] (in vivo) was 14 mg/kg and 44 µmol/kg.
On to `Cc1cc(=O)[nH]c2c1C(=O)c1c(C)cc(=O)n(C)c1C2=O` [DNQ, Deoxynyboquinone, reference compound], for which the IC50 was 130 ± 20 nM in the series on MCF-7 cells (MCF7, 2 h, Table 4.1, 2 h exposure, no DIC, ± s.e., read-out: IC50 vs. MCF-7 cells); 190 nM in the series on MCF-7 cells (setting [6]); 130 ± 20 nM in the series on MCF-7 cells (setting [7]); under 500 nM in the series with MCF-7 cells (setting [8]); 1700 ± 300 nM with MCF-7 cells (MCF7, read-out: IC50 vs. MCF-7 cells +25 μM DIC, Table 4.1, +25 μM DIC, ± s.e.); 1800 ± 300 nM with MCF-7 cells (setting [9]). Besides, in the series on MCF-7 cells, the “Fold Protection of MCF7 cells w/ 25 μM dicoumarol” value was found to be 7.8. For the same compound, the “Fold protection by DIC” value with MCF-7 cells (Table 4.1) and in the series on MCF-7 cells (Table 4.2) was 14 throughout. The “NQO1 Initial Velocity @ 1 μM” value at NQO1 was determined as 1900 ± 100. Besides, the solubility at 30 min in series [1] (pH 7.4 PBS) came to 0.1 mM (≈ 28.4 µg/mL); in series [1] (setting [10]), 0.115 mM (≈ 32.7 µg/mL); in series [1] (phosphate buffered saline, pH 7.4, aqueous buffer, thermodynamic from solid, pH 7.4 PBS) it was 0.115 mM (≈ 32.7 µg/mL). Further, in series [2] (20% HPβCD), the “fold increase in solubility in HPβCD over PBS alone” value was found to be 30 fold. Moreover, the “solution concentration in HPβCD” value in series [2] (20% HPβCD in pH 7.4 PBS) is 3.3 mM. The solubility in series [2] (setting [11]) was 3.3 mM (≈ 938 µg/mL); in series [3] (setting [12]) it was 8.5 mM (≈ 2420 µg/mL); in series [3] (setting [13]), 8.5 mM (≈ 2420 µg/mL); in series [3] (setting [14]) it was 0.7 mM (≈ 199 µg/mL); in series [3] (setting [15]), 3.1 mM (≈ 881 µg/mL); in series [5] it was 0.42 mM (≈ 119 µg/mL). Besides, the “solution concentration a 40% HPβCD solution would permit” value in series [2] (40% HPβCD, linear extrapolation) was 6.6 mM. Further, in series [3] (CH2Cl2, Table 4.3), the “Solubility in CH2Cl2” value was 0.7 mM (≈ 199 µg/mL). Moreover, the “Solubility in DMSO” value in series [3] (DMSO, Table 4.3) is given as 3.1 mM (≈ 881 µg/mL). The compound further returned an MTD in series [4] (in vivo) of about 5 mg/kg. The MTD at 5 days in series [4] (in vivo) turned out to be 5 mg/kg; in series [4] it was 18 µmol/kg.
